The source of these data is patent US20060252707A1, “Pharmaceutical composition for the treatment and/or the prevention of atherosclerosis from infectious origin” (UNIVERSITE DE LIEGE, priority 2003, published 2006).

Entries after “also recorded” stand apart in the source; their conditions may differ. Where only a bound is given, the exact number is not on record here.

Series [1] concerns THP-1 cells conditioned with Chlamydia pneumoniae. Put plainly: Oxidant activity (ethylene production from KMB, gas liquid chromatography) of THP-1 cells conditioned with Chlamydia pneumoniae, then stimulated by PMA. The note with it: for Ethylene: % of THP-1 + Chlamydia. The format is cell-based, human. Here is the method:
This model has been described in details in Mouithys Mickalad et al. (Biochem Biophys Res Comm 2001, 287: 781-788). Treatment of the Cells with Chlamydia pneumoniae:
The monocytes (in multiwell plates, 2×10^6 cells/well) are conditioned by a pre-incubation of 19 hours with elementary bodies of Chlamydia pneumoniae (at a dose equivalent to a mean endotoxin concentration of 3.3 pg). The elementary bodies are obtained by Chlamydia culture in MacCoy cells (American Type Culture Collection, Rockville, USA).
After incubation with C. pneumoniae, the cells are washed and detached from the wells; they are put in sterile vials and an oxidable substrate, α-keto-methyl butyric acid (KMB) at 10^−3 M, is added. The vial is sealed and the following reagents are added by needle puncture. through the septum: 200 U horseradish peroxidase (HRP) and 10^−7 M phorbol myristate acetate (PMA).
PMA is a monocyte activator, enhancing the superoxide anion production by these cells. Superoxide anion dismutates into hydrogen peroxide (H2O2), which is used by HRP to form more oxidant species, able to oxidize KMB, releasing ethylene. After 3 hours of incubation at 37° C, ethylene, which has accumulated in the gaseous phase of the sealed vial is measured by gas liquid chromatography, on a Porapak T column (TM) equipped with flame ionisation detector. These assays can be made with the prior addition of a reagent able to inhibit or to stimulate the monocytes, the reagent being added, either at pre-incubation (at the same time as the Chlamydia EB), or at the moment of PMA activation.

For the next series, the system named is superoxide anion. Put plainly: EPR spin-trapping of superoxide anion produced by Chlamydia-conditioned, PMA stimulated THP-1 cells. The format is cell-based, human. Conditions: 10 μM DPI; FIG. 5 lines I-5 and II-4; PMA 5×10^−7 M. An excerpt:
Monocytes are conditioned by Chlamydia. The formation of this species was monitored by electron paramagnetic resonance, using spin-trapping agents.

The test system of series [2] is nuclear transcription factor kappaB (NF-κB). The series can be described thus: Activation of NF-κB (binding to DNA) by electrophoretic mobility shift assay in THP-1 cells pre-incubated with Chlamydia. Format: cell-based, human. Conditions: THP-1 + Chlamydia, % of THP-1 without preincubation with C pneumoniae (FIG. 7). On the procedure:
FIG. 7 represents the effects of pre-incubation with Chlamydia on the activity of the nuclear transcription factor kappaB (NF-kB) (column 2). NF-kB is expressed in % of column 1 (THP-1 cells without preincubation with C pneumoniae)
The activation of NF-κB was measured by the technique of <<electrophoretic mobility shift assay>> (EMSA) (Schoonbroodt et al., 2000, J Immunol. 164: 4292-4300; Nys et al., 2003, Nitric Oxide 9: 33-43) (FIG. 7). The activation of NF-κB is expressed in % of control cells (cells which have not been pre-incubated with Chlamydia) (column 1). The incubation of monocytes with C. pneumoniae activates the NF-κB binding to DNA (FIG. 7, column 2).
(In general: A gel shift assay detects complexes by their altered migration in electrophoresis.)

For series [3] the following is noted: Dunnick et al.; cited from earlier work.
The next series concerns THP-1 cell line. Put plainly: Model of foam cell formation from THP-1 monocytes (Chlamydia pneumoniae, then LDL or liposomes, Oil Red O). Format: cell-based, human. The note with it: 10^−5 M; LDL. Here is the method:
A model of foam cell formation from monocytes (THP-1 cell line) was developed. The cells are incubated for 19 hours with Chlamydia pneumoniae. This incubation is followed by the addition of human LDL or liposomes, and another incubation period of 48 hours. At the end of this second period of incubation, the cells are fixed and stained with oil Red O (Sigma, Belgium) (Smirnova et al., 2004, Am J Physiol Heart Circ Physiol. March 11 (Epub ahead of print) to highlight the foam cells. When drugs are used in this model, they are added at the same time as the LDL or liposomes. LDL are prepared from human blood drawn on EDTA. They are isolated by sequential flotation centrifugation with increased concentrations of KBr. After their isolation, LDL are dialysed, sterilised by filtration and their purity is confirmed by electrophoresis. Liposomes are lipid vesicles prepared by extrusion with cholesterol esters and phospholipids, mimicking lipoproteins.

The subject of another series is THP-1 cells. The series can be described thus: Microscopy of monocyte transformation into macrophages under Chlamydia pneumoniae. The format is cell-based, human. On the procedure: Incubation of THP-1 cells with C. pneumoniae induces the differentiation of monocytes (round floating cells, […] diameter; FIG. 1, 1) into macrophages, amiboid cells, which are larger than monocytes (30-50 μm diameter) and adhere to the support (FIGS. 1,2). Monocytes are stained with Giemsa and May-Grunwald stains (Merck, Germany) (Chemical methods of medical investigation, 1964, 10th edition by E. Merck AG. Darmstadt, Germany) and macrophages are observed by phase contrast microscopy.

Setting [4] is: not pre-incubated, added directly before the stimulation by PMA.
[5] abbreviates: drug added at cell conditioning with Chlamydia (pre-incubation 19 hours), then PMA 10^−7 M.

On to `c1ccc([I+]c2ccccc2)cc1` [DPI, diphenyl iodonium], for which, in series [1] (DPI 5 μM, FIG. 3 column 7, PMA 10^−7 M), the “effect on ethylene production” value is on record as “inhibits almost totally”. Moreover, the “effect on EPR signal of superoxide anion” value in the series on superoxide anion was “suppresses”.
For `C[C@H]1C[C@@H]2[C@H]([C@@H](O)C[C@@]3(C)[C@H]2CC[C@]3(O)C(=O)CO)[C@@]2(C)C=CC(=O)C=C12` [MPL, methylprednisolone], the “NF-κB relative value (%)” value worked out at 417% in series [2] (10^−5 M) and 450% in series [2] (10^−6 M).
On to `O=c1c(O)c(-c2ccc(O)c(O)c2)oc2cc(O)cc(O)c12` [Quercetin, quercetin], for which the “concentrations at which toxicity does not exist” value in series [3] is listed as ≤ 10^−4 M. In addition, the “effect on oxidant activity / oxidation rate” value in series [1] (10^−4 M, pre-incubated with Chlamydia) was “active; also recorded: inhibitor”. Further, the Ethylene in series [1] (FIG. 12, 10^−4 M incubated together with Chlamydia) was determined as 2.0%; in series [1] (FIG. 12, 10^−4 M not incubated (added just before PMA)), 3.7%; in series [1] (FIG. 12, 10^−5 M incubated together with Chlamydia), 100.0%; in series [1] (FIG. 12, 10^−5 M not incubated (added just before PMA)) it was 1.2%; in series [1] (FIG. 12, 10^−6 M incubated together with Chlamydia), 131.0%; in series [1] (FIG. 12, 10^−6 M not incubated (added just before PMA)), 6.6%. In series [1] (setting [4]), the “effect on ethylene production” value is recorded as “quite completely inhibit the ethylene production”.
Consider `Oc1ccc(/C=C/c2cc(O)cc(O)c2)cc1` [Resveratrol, trans-reveratrol], for which the “effect on transformation into foam cells” value in the series on THP-1 cell line was “completely inhibits”. The “inhibition of the monocyte transformation into macrophages” value with THP-1 cells (at 10^−4 M) was “nearly complete”; with THP-1 cells (at 10^−5 M), “partial”. Also, the Ethylene in series [1] (FIG. 19, drug alone 10^−4 M, pre-incubation with Chlamydia) is 18.3%; in series [1] (FIG. 19, drug alone 10^−5 M, pre-incubation with Chlamydia), 35.8%. For the same compound, in series [1] (setting [5]), the “effect on oxidant activity / oxidation rate” value is “reduces the oxidizing activity of THP-1 cells”. The “effect on ethylene production” value in series [1] (setting [4]) is listed as “inhibiting capacity is still more marked”.
In the case of `CC(=O)c1ccc2c(c1)N(CCCN(C)C)c1ccccc1S2` [acepromazine], the “effect on oxidant activity / oxidation rate” value in series [1] (setting [5]) is given as “little or no effect”.
On the same count and under the same terms, then `COc1cc(C(C)=O)ccc1O` [apocyanine, apocynine], with “little or no effect”.
Take `CC/C(=C(/CC)c1ccc(O)cc1)c1ccc(O)cc1` [bertrol, trans-α-α-diethyl-p,p′-stilbenediol]: the Ethylene in series [1] (FIG. 21, drug alone 10^−4 M, pre-incubation with Chlamydia) came to 1.6%; in series [1] (FIG. 21, drug alone 10^−5 M, pre-incubation with Chlamydia) it was 32.0%.
Consider `C[C@]12CC[C@@H]3c4ccc(O)cc4CC[C@H]3[C@@H]1CC[C@@H]2O` [estradiol], for which the Ethylene is 2.6% in series [1] (FIG. 10, 10^−4 M not pre-incubated (added just before PMA)); 140.0% in series [1] (FIG. 10, 10^−4 M pre-incubated with Chlamydia); 2.9% in series [1] (FIG. 10, 10^−5 M not pre-incubated (added just before PMA)); 133.0% in series [1] (FIG. 10, 10^−5 M pre-incubated with Chlamydia); 7.8% in series [1] (FIG. 10, 10^−6 M not pre-incubated (added just before PMA)); 85.0% in series [1] (FIG. 10, 10^−6 M pre-incubated with Chlamydia).
On to `Oc1cc(O)cc(C=Cc2ccc(O)c(O)c2)c1` [piceatanol, 3,4,3′,5′tetrahydrostilbene], for which the Ethylene in series [1] (FIG. 20, drug alone 10^−4 M, pre-incubation with Chlamydia) worked out at 0.4%; in series [1] (FIG. 20, drug alone 10^−5 M, pre-incubation with Chlamydia), 57.0%.
As to `Oc1ccc(/C=C/c2ccccc2)cc1` [trans-4-stilbene, trans-4-hydrostilbene], the Ethylene in series [1] (FIG. 22, drug alone 10^−4 M, pre-incubation with Chlamydia) is 1.8%; in series [1] (FIG. 22, drug alone 10^−5 M, pre-incubation with Chlamydia) it was 14.0%.
In the case of tocopherol, the Ethylene in series [1] (FIG. 11 column 4, 10^−4 M pre-incubated) was determined as 147.0%; in series [1] (FIG. 11 column 5, 10^−6 M pre-incubated (so in the source)), 133.0%; in series [1] (FIG. 11 column 6, 10^−6 M pre-incubated), 87.0%; in series [1] (FIG. 11 column 7, 10^−4 M not pre-incubated (added just before PMA)), 2.4%; in series [1] (FIG. 11 column 8, 10^−5 M not pre-incubated (added just before PMA)) it was 2.5%; in series [1] (FIG. 11 column 9, 10^−6 M not pre-incubated (added just before PMA)), 77.0%. Besides, the “effect on oxidant activity / oxidation rate” value in series [1] (setting [5]) is given as “favouring the oxidation rate”; in series [1] (drug added at cell conditioning with Chlamydia (pre-incubation 19 hours), then PMA 10^−7 M, listed as vitamin E (tocopherol)), “little or no effect”. Moreover, the “effect on ethylene production” value in series [1] (setting [4]) is on record as “quite completely inhibit the ethylene production”.
